Results as given in DBAASP.
In brackets after ≈: the same amount, converted by molar mass.

Columns and labels:
Assay in all cases: ≥ marks a high value that may be exact or a test limit, other limits are often not marked, values filed in µg/mL are converted to µM
[1] = tested on: Enterococcus faecalis ATCC 29212
[2] = tested on: Escherichia coli ATCC 25922
[3] = tested on: Aeromonas salmonicida NCTC 7812
[4] = tested on: Vibrio anguillarum ATCC 19264
[5] = tested on: Streptococcus iniae 00-1425
[6] = tested on: Staphylococcus aureus ATCC 29213
[7] = tested on: Shigella flexneri ATCC 12022
[8] = tested on: Lactococcus garvieae 00-1422
[9] = tested on: Staphylococcus aureus ATCC 43300
[10] = tested on: Staphylococcus epidermidis
[11] = tested on: Micrococcus luteus CCM 144
Staphylococcus aureus = tested on: Staphylococcus aureus
Staphylococcus aureus 1 = tested on: Staphylococcus aureus 1
[12] = tested on: Candida albicans F7-39/IDE99
Bacillus subtilis 168 = tested on: Bacillus subtilis 168
Pseudomonas aeruginosa = tested on: Pseudomonas aeruginosa
[13] = tested on: Pseudomonas aeruginosa ATCC 27853
Escherichia coli B = tested on: Escherichia coli B
[14] = tested on: Streptococcus sobrinus ATCC 6715
[15] = tested on: Streptococcus mutans UA159
[16] = tested on: Streptococcus sanguinis ATCC 10556
[17] = tested on: Pseudomonas aeruginosa CGMCC 1.860
[18] = tested on: Pseudomonas aeruginosa 0108
[19] = tested on: Staphylococcus epidermidis ATCC 12228
[20] = tested on: Candida albicans ATCC 10231
[21] = tested on: Staphylococcus aureus USA 100
[22] = tested on: Candida albicans ATCC 90028
[23] = tested on: Staphylococcus aureus USA 300
[24] = tested on: Staphylococcus aureus ATCC 29737
[25] = tested on: Staphylococcus aureus P1374
[26] = tested on: Staphylococcus aureus P1381
[27] = tested on: Pseudomonas aeruginosa ATCC 9027
[28] = tested on: Staphylococcus aureus ATCC 6538
[29] = tested on: Pseudomonas aeruginosa AB93066
[30] = tested on: Staphylococcus aureus AB94004
[31] = tested on: Staphylococcus aureus ATCC 25923
Escherichia coli AB94012 = tested on: Escherichia coli AB94012
[32] = tested on: Pseudomonas aeruginosa DM23155
[33] = tested on: Klebsiella pneumoniae DM4299
[34] = tested on: Salmonella enterica subsp. enterica serovar Typhimurium ATCC 14028
[35] = tested on: Listeria monocytogenes ATCC 19111
[36] = tested on: Bacillus cereus NCDC 0240
[37] = tested on: Escherichia coli MTCC 0723
[38] = tested on: Pseudomonas aeruginosa NCDC 0105
[39] = tested on: Acinetobacter johnsonii NCDC 0072
[40] = tested on: Staphylococcus aureus NCDC 0111

**Q.** Which results are given for `CC[C@H](C)[C@H](NC(=O)CNC(=O)[C@H](CCCN=C(N)N)NC(=O)[C@H](Cc1ccccc1)NC(=O)[C@@H](NC(=O)[C@H](Cc1cnc[nH]1)NC(=O)[C@H](Cc1cnc[nH]1)NC(=O)[C@H](Cc1ccccc1)NC(=O)[C@@H](N)Cc1ccccc1)[C@@H](C)CC)C(=O)N[C@H](C(=O)N[C@@H](Cc1cnc[nH]1)C(=O)N[C@H](C(=O)NCC(=O)N[C@@H](CCCCN)C(=O)N[C@H](C(=O)N[C@H](C(=O)N[C@@H](Cc1cnc[nH]1)C(=O)N[C@@H](CCCCN)C(=O)N[C@@H](CC(C)C)C(=O)N[C@H](C(=O)N[C@H](C(=O)NCC(=O)O)[C@@H](C)O)C(C)C)[C@@H](C)CC)[C@@H](C)O)C(C)C)C(C)C` [FFHHIFRGIVHVGKTIHKLVTG]?
**A.** MIC [1]: 1.23 µM (≈ 3.13 µg/mL); MIC [2]: 4.91 µM (≈ 12.5 µg/mL); MIC [3]: ≥ 78.6 µM; MIC [4]: 4.91 µM (≈ 12.5 µg/mL); MIC [5]: 2.46 µM (≈ 6.26 µg/mL); MIC [6]: 2.46 µM (≈ 6.26 µg/mL); MIC [7]: 2.46 µM (≈ 6.26 µg/mL); MIC [8]: 0.61 µM (≈ 1.55 µg/mL)

**Q.** Which results are given for `CC[C@H](C)[C@H](NC(=O)CN)C(=O)N[C@@H](CC(C)C)C(=O)N[C@@H](CO)C(=O)N[C@@H](CO)C(=O)N[C@@H](CC(C)C)C(=O)N[C@@H](CC(C)C)C(=O)N[C@@H](CCCCN)C(=O)N[C@@H](CCCCN)C(=O)N[C@@H](CC(C)C)C(=O)N[C@@H](CCCCN)C(=O)N[C@@H](CCCCN)C(=O)N[C@H](C(=O)N[C@H](C(=O)N[C@@H](C)C(=O)N[C@@H](CCCCN)C(N)=O)[C@@H](C)CC)[C@@H](C)CC` [GILSSLLKKLKKIIAK]?
**A.** MIC [9]: 16 µM (≈ 28 µg/mL); MIC [10]: 1.8 µM (≈ 3.15 µg/mL); MIC [11]: 3 µM (≈ 5.26 µg/mL); MIC (Staphylococcus aureus): 5 µM (≈ 8.76 µg/mL); MIC (Staphylococcus aureus 1): 3.8 µM (≈ 6.66 µg/mL); MIC [12]: 10 µM (≈ 17.5 µg/mL); MIC (Bacillus subtilis 168): 7 µM (≈ 12.3 µg/mL); MIC (Pseudomonas aeruginosa): 7.5 µM (≈ 13.1 µg/mL); MIC [13]: 5 µM (≈ 8.76 µg/mL); MIC (Escherichia coli B): 8 µM (≈ 14 µg/mL)

**Q.** What does the source list for `CC(C)[C@H](NC(=O)[C@H](CCCCN)NC(=O)[C@H](CCCCN)NC(=O)[C@H](C)NC(=O)[C@H](CCCCN)NC(=O)[C@H](CCCCN)NC(=O)[C@H](Cc1ccccc1)NC(=O)[C@H](Cc1ccccc1)NC(=O)[C@H](CCCCN)NC(=O)[C@H](CCCCN)NC(=O)[C@H](Cc1c[nH]c2ccccc12)NC(=O)CN)C(=O)NCC(=O)N[C@@H](CCCCN)C(=O)O` [GWKKFFKKAKKVGK]?
**A.** MIC [14]: ≥ 305 µM; MIC [15]: ≥ 305 µM; MIC [16]: ≥ 305 µM

**Q.** For `CC[C@H](C)[C@H](N)C(=O)N[C@@H](CCCCN)C(=O)N[C@@H](CCCCN)C(=O)N[C@@H](Cc1c[nH]c2ccccc12)C(=O)N[C@@H](CC(C)C)C(=O)N[C@@H](CO)C(=O)N[C@@H](CCCCN)C(=O)N[C@H](C(=O)N[C@@H](CCCCN)C(=O)N[C@@H](CCCCN)C(=O)N[C@@H](CC(C)C)C(=O)N[C@@H](CC(C)C)C(=O)N[C@@H](CCCCN)C(N)=O)[C@@H](C)CC` [IKKWLSKIKKLLK], which MIC [17] is on record?
**A.** Its MIC is 3.13 µM (≈ 5.09 µg/mL).

**Q.** What about the MIC [18] of the same compound?
**A.** The MIC was 6.25 µM (≈ 10.2 µg/mL).

**Q.** How did the MIC [19] turn out when `CC[C@H](C)[C@H](N)C(=O)N[C@@H](CCCN=C(N)N)C(=O)N[C@H](C(=O)N[C@@H](CCCCN)C(=O)N[C@H](C(=O)N[C@@H](CCCN=C(N)N)C(=O)N[C@H](C(=O)N[C@@H](CCCCN)C(N)=O)[C@@H](C)CC)[C@@H](C)CC)[C@@H](C)CC` [IRIKIRIK] was run?
**A.** Its MIC is 3.75 µM (≈ 3.9 µg/mL).

**Q.** What about the MIC [2] of the same compound?
**A.** Its MIC is 15 µM (≈ 15.6 µg/mL).

**Q.** And the MIC [20]?
**A.** The MIC was 3.75 µM (≈ 3.9 µg/mL).

**Q.** What about the MIC [21] of the same compound?
**A.** Its MIC is 12.5 µM (≈ 13 µg/mL).

**Q.** What about the MIC [22] of the same compound?
**A.** Its MIC is 1.56 µM (≈ 1.62 µg/mL).

**Q.** And the MIC [23]?
**A.** Its MIC is 12.5 µM (≈ 13 µg/mL).

**Q.** What about the MIC [24] of the same compound?
**A.** The MIC was ≥ 60.1 µM.

**Q.** For `CC[C@H](C)[C@H](NC(=O)[C@H](CO)NC(=O)[C@H](CCCCN)NC(=O)[C@@H](NC(=O)CNC(=O)[C@H](CCCCN)NC(=O)[C@H](Cc1c[nH]c2ccccc12)NC(=O)[C@H](CC(C)C)NC(=O)[C@H](CCCCN)NC(=O)CNC(=O)[C@H](CC(C)C)NC(=O)[C@@H](NC(=O)[C@@H](N)CC(C)C)[C@@H](C)CC)C(C)C)C(=O)N[C@@H](Cc1ccccc1)C(N)=O` [LILGKLWKGVKSIF], which MIC [25] is on record?
**A.** Its MIC is 3.9 µM (≈ 6.25 µg/mL).

**Q.** And the MIC [26]?
**A.** The MIC was 15.6 µM (≈ 25 µg/mL).

**Q.** And the MIC [27]?
**A.** The MIC was 15.6 µM (≈ 25 µg/mL).

**Q.** And the MIC [28]?
**A.** The MIC was 7.8 µM (≈ 12.5 µg/mL).

**Q.** What about the MIC [2] of the same compound?
**A.** The MIC was 62.4 µM (≈ 99.9 µg/mL).

**Q.** What about the MIC [29] of the same compound?
**A.** Its MIC is ≥ 62.4 µM.

**Q.** What about the MIC [30] of the same compound?
**A.** Its MIC is 7.8 µM (≈ 12.5 µg/mL).

**Q.** What about the MIC [31] of the same compound?
**A.** The MIC was 7.8 µM (≈ 12.5 µg/mL).

**Q.** What about the MIC (Escherichia coli AB94012) of the same compound?
**A.** The MIC was 31.2 µM (≈ 50 µg/mL).

**Q.** Which results are given for `CC(=O)N[C@@H](CCCN=C(N)N)C(=O)NCC(=O)N[C@@H](CCCN=C(N)N)C(=O)N[C@@H](CCCCN)C(=O)N[C@H](C(=O)N[C@H](C(=O)N[C@@H](CCCN=C(N)N)C(=O)N[C@@H](CCCN=C(N)N)C(=O)N[C@@H](CCCCN)C(=O)N[C@@H](CCCCN)C(=O)O)C(C)C)C(C)C` [RGRKVVRRKK]?
**A.** MIC [2]: 6 µM (≈ 7.95 µg/mL); MIC [32]: 6 µM (≈ 7.95 µg/mL); MIC [33]: 6 µM (≈ 7.95 µg/mL)

**Q.** Which results are given for `CC[C@H](C)[C@H](NC(=O)[C@@H](N)CCCN=C(N)N)C(=O)N[C@@H](CCCN=C(N)N)C(=O)N[C@@H](Cc1ccccc1)C(=O)N1CCC[C@H]1C(=O)N[C@@H](Cc1c[nH]c2ccccc12)C(=O)N1CCC[C@H]1C(=O)N[C@@H](Cc1c[nH]c2ccccc12)C(=O)N[C@@H](CCCN=C(N)N)C(=O)N[C@@H](Cc1c[nH]c2ccccc12)C(=O)N1CCC[C@H]1C(=O)N[C@@H](Cc1c[nH]c2ccccc12)C(=O)N[C@@H](Cc1c[nH]c2ccccc12)C(=O)N1CCC[C@H]1C(=O)N[C@@H](CCCN=C(N)N)C(=O)N[C@@H](Cc1ccccc1)C(=O)N[C@@H](CCCN=C(N)N)C(=O)NCC(=O)O` [RIRFPWPWRWPWWPRFRG]?
**A.** MIC [34]: 50 µM (≈ 129 µg/mL); MIC [35]: 6 µM (≈ 15.5 µg/mL); MIC [36]: 1.5 µM (≈ 3.87 µg/mL); MIC [37]: 6 µM (≈ 15.5 µg/mL); MIC [38]: ≥ 50 µM; MIC [13]: 25 µM (≈ 64.6 µg/mL); MIC [6]: 6 µM (≈ 15.5 µg/mL); MIC [39]: ≥ 50 µM; MIC [40]: 12.5 µM (≈ 32.3 µg/mL)
